Test results reported in US8106019B2, “CHEC-7 a novel sPLA2 inhibitor” (Philadelphia Health & Education Corporation, priority 2002, dated 2012).

Tests used:
human plasma PLA2 = conditions: 25 nM peptide
plasma sPLA2 = conditions: LPS 4 mg/kg s.c.; peptide 0.4 mg/kg s.c. 60 min later
PLA2 = conditions: cited from earlier work

In the case of CAHAQAESC, the “survival of neural cells” value (neural cells) is reported as “promotes survival of neural cells”.

With CHEASQC [CHEC-7] the “dependence of inhibition on substrate concentration” value (human plasma PLA2) was “less effective at the lowest substrate concentrations”, the “ex vivo inhibition of human plasma PLA2” value (human plasma PLA2; 25% pooled ALS plasma, PED6 substrate) was “inhibition” and the “LPS-induced increases in sPLA2 activity in plasma” value (plasma sPLA2) was “effective in attenuating”. The “effect on LPS-induced plasma sPLA2 compared with CHEC-9” value (plasma sPLA2) was “greater and more sustained effect”.

For PMSF, the PLA2 activity (PLA2) is listed as “inhibits PLA2 activity”.
